Measurements from a melting point compilation (Tetko et al.; mined from patent text by program, amines drawn as free bases though some values may be those of a salt).

With `Cc1nc(N2CCCC2=O)sc1C(=O)NCc1ccccc1` the melting point was 222 to 224 °C.
Work on `COc1ccc2c(c1)C(Cl)(C(F)(F)F)OC(=O)N2` (centres undefined) yielded a melting point of 112 to 114 °C.
`Cc1cc(C)cc(COC(=O)C(Cc2c[nH]c3ccccc23)NC(=O)c2ccccc2)c1` (centres undefined) showed a melting point of 133 to 134 °C.
With `CO/C=C(/C(=O)OC)c1ccccc1Oc1cc(OCc2ccc([N+](=O)[O-])cc2)ncn1` the melting point was 96 to 98 °C.
For `CCOC(=O)c1cnc2ccc(C#N)cc2c1O`, the melting point was > 265 °C.
Work on `CCOC(=O)c1cccn2ccnc12` yielded a melting point of 48 to 50 °C.
With `C#CCN1CCN(C2Cc3ccc(C)cc3Sc3ccc(F)cc32)CC1` (centres undefined) the melting point was 168 to 174 °C.
With `Cn1cnc2c(NC3CCCC3)ncnc21` the melting point was 108 to 109 °C.
In the case of `CC(C)Oc1cc(CCCOc2nc(Cc3ccccc3)sc2CC(=O)O)n(Cc2ccc(Cl)cc2Cl)n1`, the melting point is reported as 106 to 108 °C.
For `Cc1ccccc1-n1c(=O)nc(N(C)C)n(C)c1=O`, the melting point was 159 to 162 °C.
In the case of `O=C(NO)c1cnc(N(CCO)Cc2cc3nc(-c4cccc5[nH]ncc45)nc(N4CCOCC4)c3s2)nc1`, the melting point is reported as 190 to 194 °C.
Molecule `COc1ccc(C2=NC(C#N)CN2c2ccc(OCc3ccccc3)cc2)cc1` (centres undefined) has a melting point of 121 to 122 °C.
With `CN(CCNC(=O)NCCSCc1csc(NC(=N)N)n1)CCN(Cc1ccc(F)cc1)c1ccccn1` the melting point was 132 °C.
Molecule `COc1cccc2c(Cc3nc(CCc4ccccc4)co3)coc12` has a melting point of 69 to 70 °C.
With `O=C(O)CCc1[nH]c2cc(Cl)cc(Cl)c2c1Br` the melting point was 228 °C.
`COCCOc1ccc(/C=C(\C)C(=O)NS(=O)(=O)c2ccc(Cl)cc2)c(Oc2ncc(C(F)(F)F)cc2Cl)c1` showed a melting point of 146 °C.
Molecule `COc1cc(O)c(C=O)cc1OC` has a melting point of 104 to 105 °C.
Work on `CC1=C(CC2=CC(=O)C=CC2=O)C(=O)C2C=CC=CC2C1=O` (centres undefined) yielded a melting point of 142 to 144 °C.
With `CCN1C(=O)C(C)(C)N=C(c2ccccc2Cl)c2cc([N+](=O)[O-])ccc21` the melting point was 178 °C.
In the case of `CCCCNC(=O)c1ccc(Cl)c(-n2nc(CCCC)n(Cc3ccc(-c4ccccc4S(=O)(=O)NC(=O)c4ccccc4Cl)cc3)c2=O)c1`, the melting point is reported as > 155 °C.
Work on `Cc1ncc2c(c1OCC(=O)O)COC2(C)c1ccc(F)cc1` (centres undefined) yielded a melting point of 184 to 186 °C.
For `CC(=O)CSc1nc2ccccc2cc1-c1ccc(F)cc1`, the melting point was 95 to 96 °C.
Work on `CN1CCc2c(-c3ccc(F)cc3)ccc([N+](=O)[O-])c2C1` yielded a melting point of 140 to 143 °C.
In the case of `COc1ccc(CCNc2nc(Cl)c3nc(-c4ccco4)oc3n2)cc1`, the melting point is reported as 170 to 171 °C.
`CC(=O)c1ccc(Br)c(S(N)(=O)=O)c1` showed a melting point of 161 °C.
Molecule `Cc1nc[nH]c1CSCCNC(N)=C[N+](=O)[O-]` has a melting point of 193 to 195 °C.
Molecule `COc1ccc(-c2ccc(C(N)=O)cc2)cc1-c1cccc([N+](=O)[O-])c1` has a melting point of 201 to 205 °C.
Molecule `COc1ccc(C=CC(=O)CN2CCOCC2)cc1` has a melting point of 78 °C.
`OCc1csc(N(c2ccccc2)c2ccccc2)n1` gave a melting point of 136 to 138 °C.
For `CCOC(=O)c1cn(C2CC2)c2cc(F)c(F)c(C)c2c1=O`, the melting point was 185 to 187 °C.
For `Clc1ccc2c(c1)-c1[nH]ncc1CS2`, the melting point was 205 to 206 °C.
With `COCCOc1ccc2ccc(N)nc2n1` the melting point was 176 °C.
With `O=C(c1ccc(Cl)cc1)C(Cn1cncn1)n1cncn1` (centres undefined) the melting point was 204 °C.
With `Cc1ccc(S(=O)(=O)n2ccc3cc(-c4ccccc4)cnc32)cc1` the melting point was 151 to 152 °C.
`N#CCCNC(=O)C1=C(C(=O)Nc2ccc(Cl)cc2F)CCCC1` showed a melting point of 160 to 161 °C.
Molecule `CCC(=O)c1ccc(CCNS(=O)(=O)c2ccc(OC)cc2)cc1` has a melting point of 107 °C.
Molecule `CCn1c(=O)ccc2cnc(Nc3ccccc3OC)nc21` has a melting point of 126 to 128 °C.
Work on `Cc1ccc(-c2cc(CN3C(=O)c4ccccc4C3=O)c(=O)n(CC(C)C)n2)cc1` yielded a melting point of 222 to 224 °C.
In the case of `C=C1COc2ccc(C(C)=O)cc2C(S(=O)(=O)c2ccccc2)C1` (centres undefined), the melting point is reported as 124 to 125 °C.
In the case of `O=c1oc(-c2ccc3c(c2)OCCO3)cc(O)c1C(CC1CC1)SC1CCCC1` (centres undefined), the melting point is reported as 80 to 82 °C.
Molecule `N#Cc1cnc2cc(-c3ccc(CN4CCOCC4)o3)ccc2c1Nc1ccc(Cl)cc1Cl` has a melting point of 118 to 120 °C.
Work on `O=C(Nn1cnnc1)C1=NN(c2ccc(Cl)cc2Cl)C(c2ccc(Cl)cc2)C1` (centres undefined) yielded a melting point of 134 to 138 °C.
Work on `CC(C)(C)c1cc(C2NNC(=S)N2N)cc(C(C)(C)C)c1O` (centres undefined) yielded a melting point of 260 to 270 °C.
With `COc1c(C)c(-c2ccccc2)nn1N` the melting point was 92 to 94 °C.
For `CC12CCC(C(=O)O)=CC1=CCC1C2CCC2(C)C(C(=O)CCCc3ccccc3)CCC12` (centres undefined), the melting point was 208 to 210 °C.
With `CN(Cc1ccc(-c2ccc(O)c(Br)c2)cc1)C(=O)c1cn(C)c2ccccc12` the melting point was 237 to 239 °C.
With `CCCCS(=O)c1ccc(C=O)nc1` (centres undefined) the melting point was 90 to 91 °C.
Molecule `CCCC(=O)NC(C#N)C(=O)OCC` (centres undefined) has a melting point of 110 °C.
`CCCCCCCCCCCCCCCCCC(=O)NCCCSc1ccncc1` showed a melting point of 88 to 89 °C.
With `COC(=O)c1c(OCc2ccc(-c3ccccc3-c3nnn[nH]3)cc2)cc(C)nc1Cl` the melting point was 204 to 207 °C.
With `COC(=O)c1ccc(CO)cc1N` the melting point was 100 to 102 °C.
With `Cc1cccc(NC(=N)N(C)C)c1-c1ccccc1` the melting point was 181 to 182 °C.
Molecule `CCn1ncc2c(O)c(CCc3ccccc3)c(C)nc21` has a melting point of 251 to 256 °C.
`CCOC(=O)n1c(C(=O)c2cncnc2)c(NC(C)=O)c2ccc(Cl)cc21` showed a melting point of 214 to 215 °C.
`CC(C)(C)OC(=O)N1CC=C(c2ccc(NCc3ccccc3)cc2)CC1` showed a melting point of 120 to 121 °C.
`CC(=O)c1ccc(Nc2cccc(-c3cnc(N)nc3)c2)c([N+](=O)[O-])c1` showed a melting point of 233 to 236 °C.
With `COC(=O)c1scc(-c2ccccc2)c1-c1ccc(SCOC(C)=O)c(F)c1` the melting point was 103 to 104 °C.
In the case of `CC(=O)c1ccc(S(=O)(=O)Nc2cccnc2Nc2ccccc2)cc1`, the melting point is reported as 171 to 173 °C.
Work on `O=C(O)C(=O)c1ccc(OCC#Cc2ccccc2)cc1` yielded a melting point of 97 to 99 °C.
With `CC(CN(C)S(C)(=O)=O)n1nnc2cc3c(=O)n(C4CC4)nnc3cc2c1=O` (centres undefined) the melting point was 170 to 172 °C.
`COc1ccc(CNn2c(=O)ccc3cnc(S(C)(=O)=O)nc32)cc1Cl` gave a melting point of 212 to 214 °C.
`CC1(C)COc2ccc(C[C@H]3NC(=O)O[C@H]3c3cccc(Cl)c3)cc21` (racemic) showed a melting point of 183 to 184 °C.
`CCC(C(OC)OC)N(C1CCCCC1)C1CCCCC1` (centres undefined) showed a melting point of 73.5 to 74.2 °C.
Molecule `CC12CCC3C(CC=C4CC(O[Si](C)(C)C(C)(C)C)CCC43C)C1CCC2=O` (centres undefined) has a melting point of 146 to 148 °C.
In the case of `NC(=O)[C@H](Cc1ccccc1)N1C(=O)c2ccccc2C1=O`, the melting point is reported as 211 to 215 °C.
With `COC(=O)c1ccc(OCCCCl)cc1` the melting point was 56.5 to 59 °C.
For `CN1CC2(OCCO2)c2ccc3ccccc3c2S1(=O)=O`, the melting point was 169 to 171 °C.
Work on `CCCc1oc2ccc([N+](=O)[O-])cc2c1C(=O)c1ccc(OC)cc1` yielded a melting point of 73 °C.
With `CCC(CC)NC(=O)C[C@@H](C(=O)NC[C@@H](O)[C@H](Cc1ccccc1)NC(=O)[C@@H](NC(=O)c1ccc2ccccc2n1)[C@@H](C)O)C(C)(C)C` the melting point was 110 to 125 °C.
Molecule `CCOC(=O)c1c([N+](=O)[O-])c(-c2cccc([N+](=O)[O-])c2)[nH]c(=O)c1C(=O)OCC` has a melting point of 188 to 190 °C.
Work on `CCCCCCOc1cc(N(CC)CC)ccc1C1(c2c(C)n(CC)c3ccccc23)OC(=O)c2cccnc21` (centres undefined) yielded a melting point of 154 to 156 °C.
Work on `Cc1cc(OCC(=S)Nc2cccc(C(=O)O)c2)ccc1C(C)C` yielded a melting point of 174 to 176 °C.
With `Clc1nccnc1OCCOc1cccc(Br)c1` the melting point was 57 to 58 °C.
Work on `CCOc1ccc2[nH]c(=O)n(N3CCN(C)CC3)c2c1` yielded a melting point of 108 °C.
Molecule `COc1ccc(-c2ccc(C(=O)Nc3cc4ncc(CN5CCCC5)cc4cc3C)cc2F)cc1` has a melting point of 165 to 167 °C.
With `CN(C)CCN(C)CC(=O)N1c2ccccc2N(C)C(=O)c2cnc(-c3ccccc3)nc21` the melting point was 125 °C.
Molecule `O=C(O)Cn1c(=O)n(CCCCN2CCC(OC(c3ccccc3)c3ccccc3)CC2)c(=O)c2ccccc21` has a melting point of 153 to 155 °C.
With `N=C(N)NC(=O)Cn1c(Cc2ccco2)ccc1-c1ccccc1` the melting point was 80 to 82 °C.
In the case of `NC(=O)c1c(Cl)c(Cl)c(Cl)c(Cl)c1Cl`, the melting point is reported as 268 to 270 °C.
`CCN1CC2CCCC2C1=C[N+](=O)[O-]` (centres undefined) gave a melting point of 86 °C.
With `CCc1sc2c(c1S(=O)(=O)c1ccc(O)cc1)CC(Cc1ccccc1Cl)NC2` (centres undefined) the melting point was 176 °C.
Molecule `N[C@@H](Cc1ccc(Cl)c(OC(F)(F)C(F)F)c1)[C@H](O)c1ccc(F)cc1` (racemic) has a melting point of 109 to 110 °C.
Molecule `COC(=O)C(N)CSCc1ccccc1` (centres undefined) has a melting point of 84 to 87 °C.
`Cc1nn(C)c2c(=O)n(C)c(C)nc12` showed a melting point of 190 to 192 °C.
In the case of `CCCOc1nc2ccc(Cl)cc2c(=O)n1CCC`, the melting point is reported as 64 to 66 °C.
With `N#Cc1ccc2c(c1)c1cc(C(=N)Nc3cccc(C(F)(F)F)c3)ccc1n2Cc1ccccc1` the melting point was 210 to 220 °C.
Molecule `O=C(Nc1nc2ccccc2s1)Nc1cccc2c1C1CCCCN1C2=O` (centres undefined) has a melting point of 260 °C.
`CC(=O)C(C)(C)Cc1cc(C(C)(C)C)c(O)c(C(C)(C)C)c1` gave a melting point of 75 °C.
With `CCCC1(C)C(C#N)C(=O)NC(=O)C1C#N` (centres undefined) the melting point was 204 to 205 °C.
In the case of `Nc1ncnc2c1c(-c1ccc(Oc3ccccc3)cc1)cn2[C@H]1CC[C@@H](N2CCCC2)CC1`, the melting point is reported as 101 to 104 °C.
Molecule `O=C1C2=C(CCCC2)C(Sc2ccccc2)N1c1ccc(Cl)cc1F` (centres undefined) has a melting point of 86 to 87 °C.
`Cc1ccc(-c2ccc3c(c2)C=C(C(=O)Nc2ccc(CN4CCN(C)CC4)cc2)CC3)cc1` gave a melting point of 174 to 175 °C.
In the case of `FC(F)(F)C1(c2cc(Cl)cc(Cl)c2)CC(c2ccc(-c3cn[nH]c3)c3ccccc23)=NO1` (centres undefined), the melting point is reported as 117 to 120 °C.
With `Cc1ccc(CCC(=O)NC(C)c2ccc(NS(C)(=O)=O)c(F)c2)cc1C` (centres undefined) the melting point was 176 to 177 °C.
In the case of `Cn1ncc2c1-c1c(Oc3cccnc3)sc(C(=O)O)c1CC2`, the melting point is reported as 124 to 125 °C.
Molecule `O=S(=O)(NCC(c1ccccc1)c1ccc(O)cc1)c1ccccc1` (centres undefined) has a melting point of 120 to 124 °C.
For `COC(=O)CCc1ccc(OCCn2c(=O)sc3cc(C(=O)c4ccccc4)ccc32)cc1`, the melting point was 74 to 77 °C.
Molecule `CCCc1ccc(NC(=O)c2cccnc2NCc2ccncc2)cc1C(F)(F)F` has a melting point of 147 to 149 °C.
For `CCOC(=O)C1=C(C)NC(C)=C(C(=O)OC)C1c1cccc(NC(C)=O)c1` (centres undefined), the melting point was 197 to 199 °C.
